Results on 20 compounds are retold here after patent US20230219965A1 (KSQ Therapeutics, Inc., priority 2020, published 2023).

pIC50: −log10 of the molar value. Where two headings read alike, the source gives them in different places.

In one data set the target is USP1/UAF1 enzyme (Homo sapiens, UniProt O94782). The data set is described as follows: USP1/UAF1 deubiquitination assay (ubiquitin-rhodamine 110 substrate). Conditions: read-out: USP1 IC50 (Ub-Rho). The class given is biochemical. Summed up:
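Cleavage of 150 nM ubiquitin-rhodamine 110 by 0.05 nM USP1/UAF1 was followed as fluorescence (Ex480/Em540, kinetic, 30 min) in Tris-HCl pH 7.8 buffer with EDTA, BSA, DTT and Tween-20. Compounds, top 10 μM, were preincubated with enzyme 10 min; % inhibition against no-enzyme and DMSO wells gave four-parameter IC50s.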

In data set [1] the test system is Ub-PCNA levels in the nucleus of ES2 cells (USP1 activity). The data set is described as follows: ES2 Ub-PCNA immunofluorescence (IF) assay. Conditions: Homo sapiens, ES-2; ES2 cells, 3 hours, Ub-PCNA immunofluorescence; read-out: USP1 IC50 (Ub-PCNA). The class given is cell-based. Summed up: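 AC50 derived from percent Ub-PCNA-positive nuclei, positivity set by a 95% cutoff from untreated-well intensities. Readout by imaging immunofluorescence (anti-Ub-PCNA, DAPI nuclear mask) after methanol fixation. Compound exposure: 3 h at 37° C, 0.3% DMSO final, on cells plated overnight.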

The nature of data set [2]: ADME solubility determination in PBS at pH 2.0 and pH 7.4. The format is physicochemical. Conditions: phosphate buffered saline, 25 °C, thermodynamic from solid. Summed up:
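Solubility was read by LC-MS/MS on centrifuged supernatants, calibrated to a known-concentration standard and corrected for dilution. Compound, dried down from 10 mM DMSO stock, was equilibrated 24 h at 25° C with shaking in PBS at pH 2.0 or pH 7.4.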

Data set [3] is described as follows: Liver microsomal metabolic stability, rat liver microsomes (RLM). Conditions: rat, liver microsomes, t1/2 (min) in RLM, 1 μM compound, 1 mg/mL microsomes, NADPH. For orientation: Microsomes from liver hold many membrane-bound enzymes, among them those of drug oxidation.
Procedure: Samples were prepared by adding 222.5 μL of a master solution (100 mM phosphate buffer and 1 mg/mL liver microsomes (HLM or RLM)) and 25 μL of a 10 mM NADPH solution to incubation plates, which were then warmed for 10 min. Each compound was separately dissolved in DMSO to prepare 10 mM stock solutions, which were then diluted to 100 μM with acetonitrile. A reaction was started by adding 2.5 μL of the 100 μM solution of each compound to separate incubation plates such that the final concentration of for each compound in each plate was 1 μM.
25 μL aliquots of each sample were taken at 0.5, 5, 10, 15, 20 and 30 minutes, and the reaction was stopped by adding 5 volumes of cold acetonitrile with IS (100 nM alprazolam, 200 nM caffeine and 100 nM tolbutamide). The samples were then centrifuged at 3,220 G for 30 minutes, and 100 μL of the supernatant fluid was mixed with 100 μL of ultra-pure H2O.
The samples were then analyzed by LC-MS/MS. Peak areas were determined from extracted ion chromatograms. Slope values (k) were determined by linear regression of the natural logarithm of the remaining percentage of the compound vs. incubation time curve. The in vitro half-life (in vitro t1/2) was determined from the slope value using the following equation:
A short description of data set [4]: Liver microsomal metabolic stability, human liver microsomes (HLM). Conditions: human, liver microsomes.
[5] abbreviates: pH 2, aqueous buffer, PBS pH 2.0, 25° C., read-out: Solubility at pH 2.0.
Setting [6] is: pH 7.4, aqueous buffer, PBS pH 7.4, 25° C., read-out: Solubility at pH 7.4.

Sequence of USP1/UAF1 enzyme (O94782 whole entry): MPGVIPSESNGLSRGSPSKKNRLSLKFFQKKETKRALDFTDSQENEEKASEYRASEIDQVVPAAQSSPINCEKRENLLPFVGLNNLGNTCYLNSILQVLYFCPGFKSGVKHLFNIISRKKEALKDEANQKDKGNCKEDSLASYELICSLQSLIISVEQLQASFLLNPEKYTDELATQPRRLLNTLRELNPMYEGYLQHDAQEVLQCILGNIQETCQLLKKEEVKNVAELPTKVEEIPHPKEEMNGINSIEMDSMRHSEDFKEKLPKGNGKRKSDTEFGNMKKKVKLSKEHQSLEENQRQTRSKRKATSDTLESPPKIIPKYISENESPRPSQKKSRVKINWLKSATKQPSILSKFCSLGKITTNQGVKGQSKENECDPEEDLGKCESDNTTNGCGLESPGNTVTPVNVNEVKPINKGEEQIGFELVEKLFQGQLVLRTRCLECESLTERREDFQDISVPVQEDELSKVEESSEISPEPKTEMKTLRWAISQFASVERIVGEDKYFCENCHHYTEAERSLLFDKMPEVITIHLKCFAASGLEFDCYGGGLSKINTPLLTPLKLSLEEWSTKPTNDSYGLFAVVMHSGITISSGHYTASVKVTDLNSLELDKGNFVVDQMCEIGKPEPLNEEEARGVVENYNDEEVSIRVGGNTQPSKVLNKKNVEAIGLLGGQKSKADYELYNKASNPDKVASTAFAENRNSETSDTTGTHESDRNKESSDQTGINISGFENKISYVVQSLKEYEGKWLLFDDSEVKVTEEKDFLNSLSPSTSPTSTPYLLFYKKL
Sequence of USP1/UAF1 enzyme (Q8TAF3 whole entry partner): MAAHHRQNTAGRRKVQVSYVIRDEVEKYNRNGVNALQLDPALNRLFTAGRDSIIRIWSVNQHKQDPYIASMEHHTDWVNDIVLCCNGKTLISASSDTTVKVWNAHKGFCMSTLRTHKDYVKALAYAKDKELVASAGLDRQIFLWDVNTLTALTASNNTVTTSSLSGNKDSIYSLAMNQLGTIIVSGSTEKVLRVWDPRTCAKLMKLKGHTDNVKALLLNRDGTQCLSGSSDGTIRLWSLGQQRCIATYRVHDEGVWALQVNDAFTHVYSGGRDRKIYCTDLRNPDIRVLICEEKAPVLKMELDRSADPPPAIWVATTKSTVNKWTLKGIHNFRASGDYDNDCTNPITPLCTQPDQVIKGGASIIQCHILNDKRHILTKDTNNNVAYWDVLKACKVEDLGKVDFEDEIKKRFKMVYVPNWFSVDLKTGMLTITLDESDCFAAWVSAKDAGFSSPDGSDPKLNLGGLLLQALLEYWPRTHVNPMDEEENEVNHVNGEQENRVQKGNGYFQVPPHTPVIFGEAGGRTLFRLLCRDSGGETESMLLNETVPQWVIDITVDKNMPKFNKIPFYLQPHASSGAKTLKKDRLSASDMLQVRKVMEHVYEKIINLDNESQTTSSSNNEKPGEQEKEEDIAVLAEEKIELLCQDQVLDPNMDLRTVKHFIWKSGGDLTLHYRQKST

Usually pIC50 stands for −log10 of the IC50, conventionally taken in molar units. A word on the solubility: it is the concentration that dissolves in the medium under given conditions. Broadly, the half-life is the time in which the quantity being followed falls by half. Low readings indicate rapid decline, high ones slow decline. On to `CCn1cc(C(F)(F)F)nc1-c1ccc(OC2CCCn3nc(-c4c(Cl)cnn4C(C)C)cc32)cc1` (stereo not drawn) [Example 261, 2-(4-chloro-1-isopropyl-1H-pyrazol-5-yl)-4-(4-(1-ethyl-4-(trifluoromethyl)-1H-imidazol-2-yl)phenoxy)-4,5,6,7-tetrahydropyrazolo[1,5-α]pyridine], for which the pIC50 (at USP1/UAF1 enzyme; in data set [1]) was over 7.00 throughout. Further, the solubility at 24 h in data set [2] (setting [5]) and in data set [2] (setting [6]) was under 10 µM each time. For the same compound, the half-life at 1 μM in data set [3] and in data set [4] was over 25 min each time.
Consider `COc1ncnc(C2CC2)c1-c1nc2n(n1)CCC(=O)N2Cc1ccc(-c2nc(C(F)(F)F)cn2C(C)C)cc1` [Example 168], for which the pIC50 (at USP1/UAF1 enzyme; in data set [1]) was over 7.00 in each case. Besides, the solubility at 24 h in data set [2] (setting [5]) and in data set [2] (setting [6]) was under 10 µM in each case. The half-life at 1 μM in data set [3] and in data set [4] was over 25 min throughout.
For `CC(C)Oc1cccnc1-c1ccc(CN2C(=O)CCn3nc(-c4c(Cl)cnn4C(C)C)nc32)cc1` [Example 304], the pIC50 at USP1/UAF1 enzyme was over 7.00; in data set [1], 6.30 to 7.00. In addition, the solubility at 24 h was at least 10 µM in data set [2] (setting [5]) and under 10 µM in data set [2] (setting [6]). The half-life at 1 μM in data set [3] and in data set [4] was under 25 min each time.
For `CC(C)n1cc(C(F)(F)F)nc1-c1ccc([C@@H](C)N2C(=O)CCn3nc(-c4c(Cl)cnn4C(C)C)nc32)cc1` [Example 178], the negative-log IC50 (pIC50) (at USP1/UAF1 enzyme; in data set [1]) was over 7.00 each time. Also, the solubility at 24 h is at least 10 µM in data set [2] (setting [5]) and under 10 µM in data set [2] (setting [6]). Besides, the half-life at 1 μM in data set [3] and in data set [4] was under 25 min throughout.
For the compound `CCn1cc(C(F)(F)F)nc1-c1ccc([C@H](C)N2C(=O)CCn3nc(-c4c(OC)ncnc4C4CC4)nc32)cc1F` [Example 190], the negative logarithm of the IC50 (pIC50) (at USP1/UAF1 enzyme; in data set [1]) was over 7.00 throughout. In addition, the solubility at 24 h in data set [2] (setting [5]) and in data set [2] (setting [6]) was at least 10 µM each time. Moreover, the half-life at 1 μM in data set [3] and in data set [4] was over 25 min throughout.
In the case of `CC(C)n1ncc(Cl)c1-c1cc2n(n1)CCC(=O)N2Cc1ccc(-c2nc(C(F)(F)F)cn2C)cc1` [Example 98], the pIC50 (on USP1/UAF1 enzyme; in data set [1]) was over 7.00 each time. Besides, the solubility at 24 h in data set [2] (setting [5]) and in data set [2] (setting [6]) was under 10 µM each time. Moreover, the half-life at 1 μM in data set [3] and in data set [4] was over 25 min each time.
Regarding `CCn1cc(C(F)(F)F)nc1-c1c(F)cc(CN2C(=O)CCn3nc(-c4c(OC)ncnc4C4CC4)nc32)cc1OC` [Example 176], the negative logarithm of the IC50 (pIC50) (at USP1/UAF1 enzyme; in data set [1]) was over 7.00 each time. The solubility at 24 h in data set [2] (setting [5]) and in data set [2] (setting [6]) was at least 10 µM each time. The half-life at 1 μM in data set [3] and in data set [4] was over 25 min in each case.
`COc1ncnc(C2CC2)c1-c1cc2n(n1)CCCN2Cc1ccc(-c2nc(C(F)(F)F)cn2C(C)C)cc1` [Example 58]: the pIC50 (at USP1/UAF1 enzyme; in data set [1]) was over 7.00 each time. The solubility at 24 h in data set [2] (setting [5]) is at least 10 µM; in data set [2] (setting [6]), under 10 µM. The half-life at 1 μM in data set [3] and in data set [4] was under 25 min throughout.
Consider `CCn1cc(C(F)(F)F)nc1-c1ccc(Cn2c(=O)ccn3nc(-c4c(Cl)cnn4C(C)C)nc23)cc1F` [Example 343, 2-(4-chloro-1-isopropyl-1H-pyrazol-5-yl)-4-(4-(1-ethyl-4-(trifluoromethyl)-1H-imidazol-2-yl)-3-fluorobenzyl)-[1,2,4]triazolo[1,5-a]pyrimidin-5(4H)-one], for which the pIC50 (on USP1/UAF1 enzyme; in data set [1]) was over 7.00 in each case. Also, the solubility at 24 h in data set [2] (setting [5]) and in data set [2] (setting [6]) was under 10 µM each time. For the same compound, the half-life at 1 μM in data set [3] and in data set [4] was over 25 min in each case.
As for `CCn1cc(C(F)(F)F)nc1-c1ccc(N[C@@H]2CCCn3nc(-c4c(OC)ncnc4C4CC4)cc32)cc1` (single isomer, unassigned) [Example 243], the figures for the pIC50 (on USP1/UAF1 enzyme; in data set [1]) were over 7.00 and 6.30 to 7.00, respectively. The solubility at 24 h is at least 10 µM in data set [2] (setting [5]) and under 10 µM in data set [2] (setting [6]). In addition, the half-life at 1 μM in data set [3] and in data set [4] was over 25 min throughout.
For the compound `CC(C)n1ncc(Cl)c1-c1cc2n(n1)CCC(=O)N2Cc1ccc(-c2ncccc2N2CCOCC2)c(Cl)c1` [Example 296], the figures for the pIC50 (on USP1/UAF1 enzyme; in data set [1]) were over 7.00 and 6.30 to 7.00, respectively. Moreover, the solubility at 24 h in data set [2] (setting [5]) was at least 10 µM; in data set [2] (setting [6]), under 10 µM. For the same compound, the half-life at 1 μM in data set [3] and in data set [4] was under 25 min each time.
Turning to `CCn1cc(C(F)(F)F)nc1-c1ccc(NC2CCCn3nc(-c4c(Cl)cnn4C(C)C)cc32)cc1OC` (stereo not drawn) [Example 246, 2-(4-chloro-1-isopropyl-1H-pyrazol-5-yl)-N-(4-(1-ethyl-4-(trifluoromethyl)-1H-imidazol-2-yl)-3-methoxyphenyl)-4,5,6,7-tetrahydropyrazolo[1,5-a]pyridin-4-amine], the pIC50 on USP1/UAF1 enzyme is over 7.00; in data set [1], 6.30 to 7.00. In addition, the solubility at 24 h is at least 10 µM in data set [2] (setting [5]) and under 10 µM in data set [2] (setting [6]). The half-life at 1 μM in data set [3] and in data set [4] was over 25 min each time.
Turning to `COc1ncnc(C2CC2)c1-c1nc2n(n1)CCC(=O)N2[C@@H](C)c1ccc(-c2nc(C(F)(F)F)cn2C2CC2)cc1` [Example 200], the pIC50 on USP1/UAF1 enzyme is 6.30 to 7.00; in data set [1], over 7.00. In addition, the solubility at 24 h in data set [2] (setting [5]) and in data set [2] (setting [6]) was at least 10 µM in each case. The half-life at 1 μM in data set [3] and in data set [4] was over 25 min in each case.
`CCn1cc(C(F)(F)F)nc1-c1ccc([C@H](C)N2C(=O)CCn3nc(-c4c(OC)ncnc4C4CC4)cc32)cc1` [Example 124]: the values for the pIC50 (on USP1/UAF1 enzyme; in data set [1]) were 6.30 to 7.00 and under 6.30, respectively. The solubility at 24 h in data set [2] (setting [5]) and in data set [2] (setting [6]) was at least 10 µM in each case. The half-life at 1 μM in data set [3] and in data set [4] was under 25 min each time.
On to `CCn1cc(C(F)(F)F)nc1-c1ccc(CN2C(=O)CCn3nc(-c4c(Cl)cnn4C(C)C)nc32)cc1F` [Example 42], for which the pIC50 (at USP1/UAF1 enzyme; in data set [1]) was over 7.00 in each case. Besides, the solubility at 24 h in data set [2] (setting [5]) and in data set [2] (setting [6]) was under 10 µM throughout. Also, the half-life at 1 μM in data set [3] and in data set [4] was over 25 min throughout.
Take `CC(C)n1cc(C(F)(F)F)nc1-c1ccc(CN2C(=O)CCn3nc(-c4c(Cl)cnn4C(C)C)nc32)cc1` [Example 41]: the pIC50 (at USP1/UAF1 enzyme; in data set [1]) was over 7.00 throughout. The solubility at 24 h in data set [2] (setting [5]) and in data set [2] (setting [6]) was under 10 µM in each case. Also, the half-life at 1 μM in data set [3] and in data set [4] was over 25 min each time.
Turning to `COc1ncnc(C2CC2)c1-c1nc2n(n1)CCC(=O)N2Cc1ccc(-c2nc(C(F)(F)F)cn2C(C)C)c(F)c1` [Example 164, 2-(4-cyclopropyl-6-methoxypyrimidin-5-yl)-4-(3-fluoro-4-(1-isopropyl-4-(trifluoromethyl)-1H-imidazol-2-yl)benzyl)-6,7-dihydro-[1,2,4]triazolo[1,5-α]pyrimidin-5(4H)-one], the pIC50 (at USP1/UAF1 enzyme; in data set [1]) was over 7.00 in each case. The solubility at 24 h in data set [2] (setting [5]) and in data set [2] (setting [6]) was under 10 µM each time. Besides, the half-life at 1 μM in data set [3] and in data set [4] was over 25 min each time.
For the compound `CCn1cc(C(F)(F)F)nc1-c1ccc(CN2C(=O)CCn3nc(-c4c(Cl)cnn4C(C)COC)cc32)cc1` (stereo not drawn) [Example 151], the pIC50 (at USP1/UAF1 enzyme; in data set [1]) was over 7.00 throughout. In addition, the solubility at 24 h in data set [2] (setting [5]) and in data set [2] (setting [6]) was under 10 µM throughout. Moreover, the half-life at 1 μM in data set [3] and in data set [4] was under 25 min throughout.
Consider `CCn1cc(C(F)(F)F)nc1-c1ccc(CN2C(=O)[C@@H](C)Cn3nc(-c4c(OC)ncnc4C4CC4)nc32)cc1F` (single isomer, unassigned) [Example 349], for which the pIC50 (on USP1/UAF1 enzyme; in data set [1]) was over 7.00 throughout. Further, the solubility at 24 h in data set [2] (setting [5]) is at least 10 µM; in data set [2] (setting [6]), under 10 µM. Also, the half-life at 1 μM in data set [3] and in data set [4] was over 25 min throughout.
For the compound `CCn1cc(C(F)(F)F)nc1-c1ccc([C@H](C)N2C(=O)CCn3nc(-c4c(OC)ncnc4C4CC4)cc32)cc1F` [Example 142], the negative logarithm of the IC50 (pIC50) (on USP1/UAF1 enzyme; in data set [1]) was 6.30 to 7.00 throughout. Also, the solubility at 24 h in data set [2] (setting [5]) is at least 10 µM; in data set [2] (setting [6]), under 10 µM. For the same compound, the half-life at 1 μM in data set [3] was under 25 min; in data set [4], over 25 min.
